Source: patent publication US20250188044A1 (HARBIN MEDISAN PHARMACEUTICAL CO., LTD., priority 2021, published 2025)
Where two headings read alike, the source gives them in different places.

Columns and labels:
[1] = molecular target: T1, PPARα (Homo sapiens, UniProt Q07869); assay: Gal4-PPARα(LBD) reporter gene agonistic activity assay in Cos-7 cells; type: cell-based; conditions: for EC50: Cos-7 cells, Gal4-PPARα(LBD) reporter, 16 h, 100% = GW7647 10 nM; for agonistic activity for PPARα (EC50 level, in words): Cos-7 reporter assay
T1 construct: hPPARα (279aa-580aa); expressed in transfected cells; host or cells: Cos-7
T1 sequence (Q07869 167-468 limits assumed): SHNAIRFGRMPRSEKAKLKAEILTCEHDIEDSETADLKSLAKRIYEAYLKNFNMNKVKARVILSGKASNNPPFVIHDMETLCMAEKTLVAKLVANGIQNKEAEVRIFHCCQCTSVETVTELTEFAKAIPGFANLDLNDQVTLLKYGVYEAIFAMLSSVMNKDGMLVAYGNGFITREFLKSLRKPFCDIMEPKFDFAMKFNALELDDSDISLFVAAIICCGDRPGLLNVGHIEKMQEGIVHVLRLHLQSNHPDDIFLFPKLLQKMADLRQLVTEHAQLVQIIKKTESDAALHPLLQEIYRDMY
Description: (§1) Cos-7 cells (African green monkey kidney fibroblasts, commonly used tool cells) were cultured in a 10 cm cell culture dish in a DMEM complete medium containing 10% fetal bovine serum. When the cells grew to a density of about 70%, the medium was replaced with a fresh medium for later transfection. […] The plasmid working solution was then added to the cell culture dish for cell transfection. […] Test compounds were prepared into appropriate test concentrations with a complete medium and then added to the 96-well plate. […] 10 μL of lysate was pipetted into a white opaque 384-well plate, and then 10 μL of reporter gene assay buffer (purchased from Shanghai Beyotime Biological Tech. Co., Ltd.) was added. The bioluminescence was detected by using a multimode microplate reader, and the corresponding half maximal effective concentration (EC50) value was calculated according to the detection value.

[2] = molecular target: T2, PPARδ (Homo sapiens, UniProt Q03181); assay: Gal4-PPARδ(LBD) reporter gene agonistic activity assay in Cos-7 cells; type: cell-based; conditions: for agonistic activity for PPARδ (EC50 level, in words): Cos-7 reporter assay
T2 construct: expressed in transfected cells; host or cells: Cos-7
T2 sequence (Q03181 139-441 limits assumed): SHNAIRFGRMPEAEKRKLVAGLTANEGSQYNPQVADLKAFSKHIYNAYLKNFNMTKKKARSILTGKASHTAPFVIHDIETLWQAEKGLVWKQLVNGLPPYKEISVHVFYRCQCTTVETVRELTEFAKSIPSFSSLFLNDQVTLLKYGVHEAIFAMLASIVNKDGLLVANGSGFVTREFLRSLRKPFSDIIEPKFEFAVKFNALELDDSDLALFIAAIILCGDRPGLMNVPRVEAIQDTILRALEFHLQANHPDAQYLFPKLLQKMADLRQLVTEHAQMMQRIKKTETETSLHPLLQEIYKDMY
Description: as §1

[3] = molecular target: T3, PPARγ (Homo sapiens, UniProt P37231); assay: Gal4-PPARγ(LBD) reporter gene agonistic activity assay in Cos-7 cells; type: cell-based; conditions: Cos-7 cells, Gal4-PPARγ(LBD) reporter, 16 h; 100% = Rosiglitazone 1 μM
T3 construct: hPPARγ (281aa-554aa); expressed in transfected cells; host or cells: Cos-7
T3 sequence (P37231 232-505 limits assumed): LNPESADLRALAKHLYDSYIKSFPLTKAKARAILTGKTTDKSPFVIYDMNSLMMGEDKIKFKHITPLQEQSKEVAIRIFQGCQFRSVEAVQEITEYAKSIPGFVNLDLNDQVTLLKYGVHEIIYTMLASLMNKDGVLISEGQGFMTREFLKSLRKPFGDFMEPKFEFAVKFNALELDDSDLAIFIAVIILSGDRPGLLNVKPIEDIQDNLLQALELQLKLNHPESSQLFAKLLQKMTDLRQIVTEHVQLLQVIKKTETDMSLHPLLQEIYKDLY
Description: as §1

[4] = Metabolic stability in human liver microsomes; type: in vitro ADME; conditions: for half-life: human liver microsomes 0.75 mg/mL, NADPH, 0-60 min
Description: A 500 μM solution of the compound in acetonitrile was prepared and diluted to obtain a 1.5 μM drug working solution with a 0.1 M potassium phosphate solution. The drug working solution was co-incubated with a human liver microsome working solution at a final concentration of 0.75 mg/mL and an NADPH solution (final concentration: 550 μM), and the incubation was terminated by adding an acetonitrile solution at 0 min, 15 min, 30 min, 45 min, and 60 min. The residual amount of the compound that remained in the system at each time point was detected by using LC/MS. The absolute value k of the slope was determined by plotting the natural logarithm of the percentage of the residual amount of the compound with the time, and the calculation was performed according to the formula: T1/2 (half-life)=ln2/k=0.693/k.

[5] = Pharmacokinetic evaluation in rats; type: in vivo, SD rats
Description: Animals: 6 male SD rats, SPF grade, sourced from the animal repository of Shanghai Medicilon research institution.
The dose in the oral administration group was 10 mpk, and the dose in the intravenous injection group was 2 mpk.
All samples were centrifuged at 18,000 g for 7 min in a low-temperature centrifuge, and plasma was isolated. The content of the compound in the plasma was determined by LC-MS/MS-18, and relevant pharmacokinetic parameters were calculated from the plasma concentration data at different time points.

| SMILES | EC50 [1] [nM] | agonistic activity for PPARα (EC50 level, in words) [1] | EC50 ([2]; Cos-7 cells, Gal4-PPARδ(LBD) reporter, 16 h, 100% = GW501516 10 nM) [nM] | agonistic activity for PPARδ (EC50 level, in words) [2] | EC50 [3] [nM] | metabolic stability in human liver microsomes (in words) [4] | half-life [4] [h] | EC50 [2] [nM] | pharmacokinetic properties (in words) [5] | Area under the curve AUC(0-∞) ([5]; intravenous injection, 2 mpk) [ng·h/mL] | Half-life T1/2 ([5]; intravenous injection, 2 mpk) [h] | Peak concentration Cmax ([5]; intravenous injection, 2 mpk) [ng/mL] | Time-to-peak Tmax ([5]; intravenous injection, 2 mpk) [h] | Area under the curve AUC(0-∞) ([5]; oral administration, 10 mpk) [ng·h/mL] | Bioavailability F ([5]; oral administration, 10 mpk) [%] | Half-life T1/2 ([5]; oral administration, 10 mpk) [h] | Peak concentration Cmax ([5]; oral administration, 10 mpk) [ng/mL] | Time-to-peak Tmax ([5]; oral administration, 10 mpk) [h] |
| --- | --- | --- | --- | --- | --- | --- | --- | --- | --- | --- | --- | --- | --- | --- | --- | --- | --- | --- |
| CCc1ccc(-n2cnn(Cc3cc(C)c(OC(C)(C)C(=O)O)c(C)c3)c2=O)cc1 [Compound 131, 2-(4-((4-(4-Ethylphenyl)-5-oxo-4,5-dihydro-1H-1,2,4-triazol-1-yl)methyl)-2,6-dimethylphenoxy)-2-methylpropionic acid] | 14 | at nanomolar levels | 67 | at nanomolar levels | 1180 | very good metabolic stability in human liver microsomes | > 2 |  |  |  |  |  |  |  |  |  |  |  |
| Cc1cc(Cn2ncn(-c3ccc(C(F)(F)F)cc3)c2=O)cc(Cl)c1OC(C)(C)C(=O)O [Compound 143, 2-(2-Chloro-6-methyl-4-((5-oxo-4-(4-(trifluoromethyl)phenyl)-4,5-dihydro-1H-1,2,4-triazol-1-yl)methyl)phenoxy)-2-methylpropionic acid] | 9 | at nanomolar levels |  | at nanomolar levels | 1800 | very good metabolic stability in human liver microsomes | > 2 | 15 |  |  |  |  |  |  |  |  |  |  |
| Cc1cc(Cn2ncn(-c3ccc(OC(F)(F)F)cc3)c2=O)cc(C(F)(F)F)c1OC(C)(C)C(=O)O [Compound 163, 2-Methyl-2-(2-methyl-4-((5-oxo-4-(4-(trifluoromethoxy)phenyl)-4,5-dihydro-1H-1,2,4-triazol-1-yl)methyl)-6-(trifluoromethyl)phenoxy)propionic acid] | 35 | at nanomolar levels |  | at nanomolar levels |  |  | > 2 | 6 | relatively good pharmacokinetic properties | 15851.97 ± 3557.93 | 12.71 ± 8.67 | 10864.30 ± 719.85 | 0.08 ± 0.00 | 39483.83 ± 5363.60 | 53.24 | 6.86 ± 0.34 | 5474.28 ± 1232.94 | 0.25 ± 0.00 |
